One assay has as its target piscidin 3 (P3) (Morone chrysops x Morone saxatilis, UniProt P0C006). Description: circular dichroism titration at […] nm, one-site two-state fit. Format: binding.
A further assay concerns the target piscidin 1 (P1) (Morone saxatilis, UniProt Q8UUG0). The assay is described as above. Format: binding.

The structures appear in SMILES notation.

Sequence of piscidin 1 (P1) (Q8UUG0 23-44): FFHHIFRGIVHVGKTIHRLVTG
Sequence of piscidin 3 (P3) (P0C006 whole entry): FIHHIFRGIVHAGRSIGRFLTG

On to `CCCCCCOC(=O)CCCCCCC/C=C\CCCCCC[C@H](C)O[C@@H]1O[C@H](CO)[C@@H](O)[C@H](O)[C@H]1O[C@@H]1O[C@H](CO)[C@@H](O)[C@H](O)[C@H]1O` [SL-HE], for which the Kd – broadly, the concentration at which binding is half-saturated – on piscidin 3 (P3) came to 391.5 ± 1.5 µM; on piscidin 1 (P1), 206 ± 5 µM.

The values are drawn from publication PMC10751773 (JACS Au, 2023).
